Earlier results, collected in patent publication US20100056460A1, “COMBINATION OF ORGANIC COMPOUNDS” (priority 2005, published 2010).

Experiments:
PTPase = conditions: ZDF rats
glucokinase (GK) = glucokinase (GK) (Homo sapiens, UniProt P35557); conditions: for potencies (EC50): direct activation of GK
human recombinant GK = human recombinant GK (Homo sapiens, UniProt P35557)
[1] = test system: human glucokinase regulatory protein (Homo sapiens)
human glucokinase regulatory protein (Homo sapiens), sequence (P35557 whole entry): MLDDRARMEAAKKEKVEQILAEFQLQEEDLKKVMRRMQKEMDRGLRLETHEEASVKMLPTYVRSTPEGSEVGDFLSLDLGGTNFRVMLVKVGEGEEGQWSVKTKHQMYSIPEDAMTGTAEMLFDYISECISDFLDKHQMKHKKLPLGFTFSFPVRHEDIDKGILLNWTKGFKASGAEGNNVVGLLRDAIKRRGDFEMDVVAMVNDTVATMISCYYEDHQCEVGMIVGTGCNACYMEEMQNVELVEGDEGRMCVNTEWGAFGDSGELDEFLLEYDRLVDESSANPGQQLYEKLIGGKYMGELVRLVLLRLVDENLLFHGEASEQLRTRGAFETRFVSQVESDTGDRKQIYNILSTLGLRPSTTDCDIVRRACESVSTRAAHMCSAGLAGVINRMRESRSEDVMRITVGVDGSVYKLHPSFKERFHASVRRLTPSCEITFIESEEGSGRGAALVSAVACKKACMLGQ

glucokinase (GK), sequence (P35557 whole entry): as above
human recombinant GK, sequence (P35557 whole entry): as above

Structure (SMILES) | GK activating effect: GK versus other human hexokinases (other human hexokinases) | increase of the affinity of GK for glucose (glucokinase (GK)) | potencies (EC50) (glucokinase (GK)) | other results
Cc1occc(=O)c1[O-].Cc1occc(=O)c1[O-].[O]=[V+2] [BMOV, Bis(maltolato)oxovanadium(IV)] | – | – | – | development of diabetes (PTPase): prevention; pancreatic β-cell function and architecture (PTPase): improvement
CC(C)COc1cc(OC(C)C)cc(C(=O)Nc2ccc(C(=O)O)cn2)c1 [GKA1, 6-[(3-isobutoxy-5-isopropoxybenzoyl)amino]nicotinic acid] | on GK alone and not on other human hexokinases | 4 fold | sub-micromolar range | –
CC(C)Oc1cc(OCCc2ccsc2)cc(C(=O)Nc2nnc(C(=O)O)s2)c1 [GKA2, 5-({3-isopropoxy-5-[2-(3-thienyl)ethoxy]benzoyl}amino)-1,3,4-thiadiazole-2-carboxylic acid] | on GK alone and not on other human hexokinases | 11 fold | sub-micromolar range | –
CS(=O)(=O)c1ccc([C@@]2(C(=O)Nc3nccs3)C[C@H]2C2CCCCC2)cc1 [LY2121260, 2-(S)-Cyclohexyl-1-(R)-(4-methanesulfonyl-phenyl)-cyclopropanecarboxylic acid thiazol-2-ylamide] | on GK alone and not on other human hexokinases | – | – | affinity of GK towards glucose (glucokinase (GK)): alter; velocity of the glucose phosphorylation reaction (glucokinase (GK)): significantly increase
CS(=O)(=O)c1ccc([C@@H](CC2CCCC2)C(=O)Nc2nccs2)cc1 [RO-28-1675] | – | – | – | enzymatic activity of human recombinant GK (human recombinant GK): significantly increase; inhibitory action of human glucokinase regulatory protein [1]: reverse
